One molecule from ChEMBL document CHEMBL5576083, “Structure-Based Design and Synthesis of Covalent Inhibitors for Deubiquitinase and Acetyltransferase ChlaDUB1 of Chlamydia trachomatis” (J Med Chem, 2024) can be followed below.

≈ marks a conversion by molar mass, not a printed value. Calls of active or inactive are those of the source. The calls are words filed in the database; no cut-off is given here.

For data set [1], the target named is Ubiquitin carboxyl-terminal hydrolase 14 (Homo sapiens) (UniProt P54578). Nature of the data set: Inhibition of human USP14 using Ub-Rh110Gly as fluorogenic substrate at 40 uM preincubated for 1 hr followed by substrate addition by plate reader analysis.
For data set [2], the system named is Chlamydia trachomatis. Nature of the data set: Antimicrobial activity against Chlamydia trachomatis serovar L2 infected in human HeLa cells assessed as reduction in inclusion circumference at 12.5 ug/ml measured after 24 hrs of post-infection by microscopic analysis (reference value: 31.72 micrometer). Type of data set: functional. As to conditions: dose 12.5 µg/ml.

A short description of data set [3]: Inhibition of Chlamydia trachomatis DUB2 expressed in Escherichia coli Rosetta 2 (DE3) cells using Ub-Rh110Gly as fluorogenic substrate preincubated for 1 hr followed by substrate addition by plate reader analysis.
Data set [4] has as its system Chlamydia trachomatis. Nature of the data set: Antimicrobial activity against Chlamydia trachomatis serovar L2 infected in human HeLa cells assessed as reduction in microbial progeny at 3.13 ug/ml measured after 48 hrs of post-infection by immunofluorescence analysis. It is filed as functional. Details: scale not given: the % may be the effect or the level left. As to conditions: dose 3.13 µg/ml.

Data set [5] concerns Chlamydia trachomatis. Nature of the data set: Antimicrobial activity against Chlamydia trachomatis serovar L2 infected in human HeLa cells assessed as reduction in microbial progeny at 12.5 ug/ml measured after 48 hrs of post-infection by immunofluorescence analysis. It is filed as functional. On the set-up: scale not given: the % may be the effect or the level left. As to conditions: dose 12.5 µg/ml.

Data set [6] deals with T1, Ubiquitin carboxyl-terminal hydrolase 28 (Homo sapiens) (UniProt Q96RU2).
T1 sequence (whole entry): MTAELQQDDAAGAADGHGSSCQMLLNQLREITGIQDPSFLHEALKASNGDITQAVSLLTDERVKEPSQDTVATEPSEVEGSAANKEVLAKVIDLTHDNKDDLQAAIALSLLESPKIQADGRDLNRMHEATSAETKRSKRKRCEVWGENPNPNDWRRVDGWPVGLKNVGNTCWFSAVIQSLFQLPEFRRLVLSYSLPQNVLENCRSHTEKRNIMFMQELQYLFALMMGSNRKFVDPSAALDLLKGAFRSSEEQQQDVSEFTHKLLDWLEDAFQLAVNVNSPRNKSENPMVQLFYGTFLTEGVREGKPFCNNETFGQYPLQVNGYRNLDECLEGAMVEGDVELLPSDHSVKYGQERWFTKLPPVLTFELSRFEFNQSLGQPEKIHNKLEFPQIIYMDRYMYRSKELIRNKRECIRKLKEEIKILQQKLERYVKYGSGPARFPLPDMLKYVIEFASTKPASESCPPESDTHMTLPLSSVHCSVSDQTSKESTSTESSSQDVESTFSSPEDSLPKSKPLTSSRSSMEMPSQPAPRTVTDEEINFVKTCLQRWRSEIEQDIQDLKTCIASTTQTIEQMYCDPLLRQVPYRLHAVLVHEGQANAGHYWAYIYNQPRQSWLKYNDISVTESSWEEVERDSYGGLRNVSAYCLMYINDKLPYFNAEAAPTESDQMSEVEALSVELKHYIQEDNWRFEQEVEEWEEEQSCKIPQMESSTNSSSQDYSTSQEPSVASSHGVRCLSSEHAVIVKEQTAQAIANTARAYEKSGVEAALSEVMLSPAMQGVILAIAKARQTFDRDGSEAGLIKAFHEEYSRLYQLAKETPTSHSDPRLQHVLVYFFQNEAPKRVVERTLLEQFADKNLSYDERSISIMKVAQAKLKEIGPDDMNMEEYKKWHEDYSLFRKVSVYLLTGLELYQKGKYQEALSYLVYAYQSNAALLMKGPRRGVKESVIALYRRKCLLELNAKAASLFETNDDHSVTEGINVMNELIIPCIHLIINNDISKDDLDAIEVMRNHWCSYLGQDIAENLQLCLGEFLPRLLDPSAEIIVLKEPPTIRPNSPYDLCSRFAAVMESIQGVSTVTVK
Nature of the data set: Inhibition of human USP28 (149 to 707 residues) expressed in Escherichia coli Rosetta 2 (DE3) cells using Ub-Rh110Gly as fluorogenic substrate at 40 uM preincubated for 1 hr followed by substrate addition by plate reader analysis.

Data set [7] can be described thus: Solubility of compound in PBS incubated overnight by shake-flask based HPLC analysis. It is filed as physicochemical.
Data set [8] concerns Chlamydia trachomatis. The experiment in a line: Antimicrobial activity against Chlamydia trachomatis serovar L2 infected in human HeLa cells assessed as reduction in inclusion area at 3.13 ug/ml measured after 24 hrs of post-infection by microscopic analysis. Type of data set: functional. As to conditions: dose 3.13 µg/ml.
Data set [9] deals with Ubiquitin carboxyl-terminal hydrolase isozyme L1 (Homo sapiens) (UniProt P09936). The experiment in a line: Inhibition of 6His-tagged human UCHL1 using Ub-Rh110Gly as fluorogenic substrate at 40 uM preincubated for 1 hr followed by substrate addition by plate reader analysis.
For data set [10], the system named is Chlamydia trachomatis. The experiment in a line: Antimicrobial activity against Chlamydia trachomatis serovar L2 infected in human HeLa cells assessed as reduction in inclusion area at 1.56 ug/ml measured after 24 hrs of post-infection by microscopic analysis. Type of data set: functional. As to conditions: dose 1.56 µg/ml.
Data set [11] relates to Chlamydia trachomatis. Nature of the data set: Inhibition of C-terminal 6His-tagged Chlamydia trachomatis DUB1 (130 to 401 residues) expressed in Escherichia coli Rosetta 2 (DE3) cells using Ub-Rh110Gly as fluorogenic substrate at 40 uM preincubated for 1 hr followed by substrate addition by plate reader analysis.
In data set [12] the test system is Chlamydia trachomatis. Nature of the data set: Anti-chlamydial activity against Chlamydia trachomatis serovar L2 infected in human HEp-2 cells assessed as inhibition of chlamydial inclusion incubated for 24 hrs by Alexa488/DAPI staining based immunofluorescence assay. The note with it: serovar L2, HEp-2, 24 h. Type of data set: functional, organism-based.
The test system of data set [13] is Chlamydia trachomatis. The experiment in a line: Antimicrobial activity against Chlamydia trachomatis serovar L2 infected in human HeLa cells assessed as reduction in microbial progeny at 6.25 ug/ml measured after 48 hrs of post-infection by immunofluorescence analysis. Type of data set: functional. Details: scale not given: the % may be the effect or the level left. The note with it: dose 6.25 µg/ml.

By IC50 is commonly meant the concentration at which inhibition is half-maximal. By thermodynamic solubility is commonly meant the concentration in solution at equilibrium with solid.

Ubiquitin carboxyl-terminal hydrolase 14 (Homo sapiens), sequence (P54578 whole entry): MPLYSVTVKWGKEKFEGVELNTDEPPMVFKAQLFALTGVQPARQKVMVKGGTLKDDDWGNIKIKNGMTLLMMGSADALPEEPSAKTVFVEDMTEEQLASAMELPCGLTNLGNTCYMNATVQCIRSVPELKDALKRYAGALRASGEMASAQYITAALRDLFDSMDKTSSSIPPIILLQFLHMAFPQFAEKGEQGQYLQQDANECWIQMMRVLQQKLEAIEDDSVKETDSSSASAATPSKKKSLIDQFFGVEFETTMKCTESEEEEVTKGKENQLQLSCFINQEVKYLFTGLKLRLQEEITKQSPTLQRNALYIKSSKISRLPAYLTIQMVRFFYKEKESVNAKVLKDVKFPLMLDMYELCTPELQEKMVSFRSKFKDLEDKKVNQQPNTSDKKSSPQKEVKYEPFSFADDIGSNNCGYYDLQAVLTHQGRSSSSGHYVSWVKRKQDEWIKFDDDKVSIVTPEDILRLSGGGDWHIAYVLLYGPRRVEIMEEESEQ
Ubiquitin carboxyl-terminal hydrolase isozyme L1 (Homo sapiens), sequence (P09936 whole entry, looked up): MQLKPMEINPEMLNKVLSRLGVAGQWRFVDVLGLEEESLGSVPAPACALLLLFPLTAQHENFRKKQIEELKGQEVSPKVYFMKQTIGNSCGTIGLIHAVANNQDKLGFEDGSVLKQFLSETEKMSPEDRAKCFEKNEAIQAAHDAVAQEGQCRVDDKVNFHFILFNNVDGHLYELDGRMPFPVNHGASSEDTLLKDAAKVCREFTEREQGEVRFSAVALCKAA

Turning to `N#Cc1ncc(C(=O)NCc2ccc(C(=O)NC34CC5CC(CC(C5)C3)C4)cc2)cn1`, the inhibition result in data set [1] and in [6] was “inactive” each time. The Activity in the data set on Chlamydia trachomatis [2] was determined as 14.75 um; in the data set on Chlamydia trachomatis [4], 11%; in the data set with Chlamydia trachomatis [5] it was 98.5%; with Chlamydia trachomatis [8] it was 49.99 um2; in the data set on Chlamydia trachomatis [10], 70.68 um2; with Chlamydia trachomatis [13], 41%. In addition, the results for the IC50 (in [3]; in the data set on Chlamydia trachomatis [12]) were 15.7 µM and 8.52 µg/mL (≈ 20.5 µM), respectively. This molecule also came in with a thermodynamic solubility in data set [7] of 308 µM (≈ 128 µg/mL). Also, the inhibition entry (in data set [9]; in the data set on Chlamydia trachomatis [11]) was “Active” throughout.
